By IC50 is commonly meant the concentration that inhibits the measured activity by half.

50 molecules from patent US20250213558A1, “T-TYPE CALCIUM CHANNEL MODULATORS COMPRISING A PIPERAZINE OR 1,4-DIAZEPANE CORE AND METHODS OF USE THEREOF” (Praxis Precision Medicines, Inc., priority 2022, published 2025) can be followed below.

The target in this assay is T1, Human Cav3.1 calcium channel (Homo sapiens, UniProt O43497).
T1 construct: expressed in transfected cells; host or cells: HEK-293 natClytin/TASK1+Cav3.1 cell line
T1 sequence (O43497 whole entry): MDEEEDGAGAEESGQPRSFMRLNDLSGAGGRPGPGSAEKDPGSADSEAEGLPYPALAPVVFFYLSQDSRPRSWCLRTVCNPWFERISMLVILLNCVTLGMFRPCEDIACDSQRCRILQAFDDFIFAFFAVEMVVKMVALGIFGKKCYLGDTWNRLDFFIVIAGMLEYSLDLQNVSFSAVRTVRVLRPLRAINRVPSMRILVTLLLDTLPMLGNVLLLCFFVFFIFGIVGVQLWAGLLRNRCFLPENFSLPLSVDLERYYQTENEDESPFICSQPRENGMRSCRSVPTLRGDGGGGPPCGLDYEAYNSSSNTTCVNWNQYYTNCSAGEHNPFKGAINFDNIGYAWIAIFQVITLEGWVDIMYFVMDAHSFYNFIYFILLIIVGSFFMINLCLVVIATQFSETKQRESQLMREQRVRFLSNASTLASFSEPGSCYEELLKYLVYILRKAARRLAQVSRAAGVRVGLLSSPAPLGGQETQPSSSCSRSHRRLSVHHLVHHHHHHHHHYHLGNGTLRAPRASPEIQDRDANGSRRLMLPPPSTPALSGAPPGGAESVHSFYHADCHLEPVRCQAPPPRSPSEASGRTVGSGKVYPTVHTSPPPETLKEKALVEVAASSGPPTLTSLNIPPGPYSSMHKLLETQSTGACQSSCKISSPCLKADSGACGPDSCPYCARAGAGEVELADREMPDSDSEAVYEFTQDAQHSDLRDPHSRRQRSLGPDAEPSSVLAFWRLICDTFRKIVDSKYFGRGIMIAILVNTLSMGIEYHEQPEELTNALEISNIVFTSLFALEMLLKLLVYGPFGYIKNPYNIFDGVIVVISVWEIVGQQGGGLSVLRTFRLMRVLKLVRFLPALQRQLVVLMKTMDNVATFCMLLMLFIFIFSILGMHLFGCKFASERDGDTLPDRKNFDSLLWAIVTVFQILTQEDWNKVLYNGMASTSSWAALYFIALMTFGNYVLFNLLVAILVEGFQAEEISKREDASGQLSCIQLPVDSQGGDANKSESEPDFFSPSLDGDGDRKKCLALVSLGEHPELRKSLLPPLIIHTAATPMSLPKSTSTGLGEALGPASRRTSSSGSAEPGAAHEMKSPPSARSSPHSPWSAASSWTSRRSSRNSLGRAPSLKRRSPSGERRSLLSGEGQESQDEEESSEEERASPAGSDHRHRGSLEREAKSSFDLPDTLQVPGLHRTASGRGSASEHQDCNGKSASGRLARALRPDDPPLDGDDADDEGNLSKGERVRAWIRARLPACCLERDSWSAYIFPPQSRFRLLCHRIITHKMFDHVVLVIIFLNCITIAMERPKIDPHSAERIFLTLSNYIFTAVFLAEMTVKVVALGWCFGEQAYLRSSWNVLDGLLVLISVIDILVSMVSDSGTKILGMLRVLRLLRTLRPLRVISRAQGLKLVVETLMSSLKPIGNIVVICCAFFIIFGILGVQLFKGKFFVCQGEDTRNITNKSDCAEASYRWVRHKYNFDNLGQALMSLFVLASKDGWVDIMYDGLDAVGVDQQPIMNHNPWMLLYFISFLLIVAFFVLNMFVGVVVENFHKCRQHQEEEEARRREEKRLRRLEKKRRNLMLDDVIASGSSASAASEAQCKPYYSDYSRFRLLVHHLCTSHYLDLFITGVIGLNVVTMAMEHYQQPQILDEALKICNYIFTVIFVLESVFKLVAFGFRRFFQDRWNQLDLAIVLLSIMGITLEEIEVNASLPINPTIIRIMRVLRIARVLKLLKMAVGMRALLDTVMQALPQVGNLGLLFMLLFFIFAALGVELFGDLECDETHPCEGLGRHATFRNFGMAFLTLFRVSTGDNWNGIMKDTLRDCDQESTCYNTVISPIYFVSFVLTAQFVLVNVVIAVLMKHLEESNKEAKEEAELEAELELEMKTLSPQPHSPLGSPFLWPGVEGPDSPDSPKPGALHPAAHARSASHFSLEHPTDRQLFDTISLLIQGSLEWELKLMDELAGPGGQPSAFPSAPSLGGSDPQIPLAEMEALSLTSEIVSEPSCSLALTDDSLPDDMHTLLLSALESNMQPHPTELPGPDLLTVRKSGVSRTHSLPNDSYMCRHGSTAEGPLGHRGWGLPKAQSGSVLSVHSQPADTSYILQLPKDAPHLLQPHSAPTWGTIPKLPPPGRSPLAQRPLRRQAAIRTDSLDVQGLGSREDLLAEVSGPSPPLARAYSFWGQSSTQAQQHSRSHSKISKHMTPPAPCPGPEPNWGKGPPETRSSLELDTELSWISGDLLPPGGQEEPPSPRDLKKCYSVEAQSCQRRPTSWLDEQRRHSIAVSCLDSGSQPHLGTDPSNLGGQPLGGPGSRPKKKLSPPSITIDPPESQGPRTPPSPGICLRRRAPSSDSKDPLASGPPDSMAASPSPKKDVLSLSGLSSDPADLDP
In words: Human Cav3.1 calcium channel patch clamp assay (SyncroPatch 384PE; single point and IC50, voltage dependent block). The class given is cell-based. The settings on record: HEK-293 natClytin/TASK1+Cav3.1 cell line; for % Inhibition (Single Point Data): Testing Conc 1.25, patch clamp; for IC50: voltage dependent block (VDB), read-out: Cav3.1 IC50. In short, it runs like this:
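Automated whole-cell patch clamp at room temperature, cells held at −120 mV; 100 ms step to −20 mV (resting block), then 1600 ms at −65 mV and a second −20 mV step (voltage-dependent block), every 15 s. Peak currents averaged over last 3 sweeps; % inhibition relative to nickel-sensitive current.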
A general note: Patch clamp records ionic current or voltage across a cell membrane.

`CC(C)(C)NC(=O)CN1C[C@H]2C[C@@H]1CN2CC(=O)NC12CC3CC(CC(C3)C1)C2` [Compound 261]: the “% Inhibition (Single Point Data)” value was 70.332% and the half-inhibitory concentration (IC50) came to 0.518 µM.

In the case of `CC(C(=O)Nc1cc(F)cc(Cl)c1)N1C[C@@H]2C[C@H]1CN2CC(=O)NC1(C(F)(F)F)CC1` (stereo partly shown) [Compound 262], the “% Inhibition (Single Point Data)” value worked out at 87.794% and the IC50 was 0.215 µM. In the case of `CC(C(=O)Nc1ccc(F)c(OC(F)F)c1)N1C[C@@H]2C[C@H]1CN2CC(=O)NC(C)(C)C` (stereo partly shown) [Compound 263], the “% Inhibition (Single Point Data)” value worked out at 90.098% and the IC50 is 0.234 µM. For `CC(C(=O)Nc1ccc(F)c(Cl)c1)N1C[C@@H]2C[C@H]1CN2CC(=O)NC(C)(C)C` (stereo partly shown) [Compound 264], the “% Inhibition (Single Point Data)” value stood at 85.955% and the IC50 stood at 0.242 µM. Turning to `CC(C(=O)Nc1cc(F)cc(OC(F)F)c1)N1C[C@@H]2C[C@H]1CN2CC(=O)NC(C)(C)C` (stereo partly shown) [Compound 265], the “% Inhibition (Single Point Data)” value came to 88.764%. `CC(C)(C)NC(=O)CN1C[C@H]2CC[C@@H]1CN2CC(=O)Nc1ccc(F)c(OC(F)F)c1` [Compound 266]: the “% Inhibition (Single Point Data)” value was determined as 61.569% and the IC50 turned out to be 0.803 µM. Regarding `CC(C)(C)NC(=O)CN1C[C@@H]2CC[C@H]1CN2CC(=O)Nc1ccc(F)c(OC(F)F)c1` [Compound 267], the “% Inhibition (Single Point Data)” value is listed as 73.222% and the IC50 came to 0.455 µM. For `CC(C)(C)NC(=O)CN1C[C@H]2CC[C@@H]1CN2CC(=O)Nc1cc(F)cc(Cl)c1` [Compound 268] the same measures were 85.508% and 0.356 µM. Regarding `CC(C)(C)NC(=O)CN1C[C@H]2CC[C@@H]1CN2CC(=O)Nc1ccc(F)c(Cl)c1` [Compound 269], the “% Inhibition (Single Point Data)” value came to 62.186% and the IC50 is 0.888 µM. As to `CC(C)(C)NC(=O)CN1C[C@@H]2CC[C@H]1CN2CC(=O)Nc1cc(F)cc(Cl)c1` [Compound 270], the “% Inhibition (Single Point Data)” value is reported as 95.978%.

Turning to `CC(C)(C)NC(=O)CN1C[C@@H]2CC[C@H]1CN2CC(=O)Nc1ccc(F)c(Cl)c1` [Compound 271], the “% Inhibition (Single Point Data)” value is on record as 70.509% and the IC50 is 0.581 µM. Regarding `CC(C)(C)NC(=O)CN1C[C@@H]2C[C@H]1CN2CC(=O)Nc1cc(Cl)cc(Cl)c1` [Compound 272], the “% Inhibition (Single Point Data)” value was 98.544% and the IC50 is 0.0712 µM.

With `Cc1cc(CNC(=O)CN2CC3CC(C2)N3CC(=O)NC(C)(C)C)nn1-c1ccccc1` [Compound 273], the “% Inhibition (Single Point Data)” value was 6.1482%. For `Cc1cc(CNC(=O)CN2C[C@@H]3C[C@H]2CN3CC(=O)NC(C)(C)C)nn1-c1ccccc1` [Compound 274], the “% Inhibition (Single Point Data)” value was 13.426%. On to `COc1cc(F)cc(NC(=O)CN2C[C@@H]3C[C@H]2CN3CC(=O)NC(C)(C)C)c1` [Compound 275], for which the “% Inhibition (Single Point Data)” value is given as 93.716%. In the case of `Cc1cc(F)cc(NC(=O)CN2C[C@@H]3C[C@H]2CN3CC(=O)NC(C)(C)C)c1` [Compound 276], the “% Inhibition (Single Point Data)” value stood at 71.467% and the IC50 stood at 0.474 µM. For `O=C(CN1C[C@@H]2C[C@H]1CN2CC1(O)CCC(F)(F)CC1)NC12CC3CC(CC(C3)C1)C2` [Compound 277] the same measures were 56.486% and 0.886 µM. The corresponding values for `O=C(CN1CC2CC(C1)N2CC1(O)CCC(F)(F)CC1)NC12CC3CC(CC(C3)C1)C2` [Compound 278] are 45.568% and 1.21 µM. For `O=C(CN1C[C@@H]2C[C@H]1CN2CC1(F)CCC(F)(F)CC1)NC12CC3CC(CC(C3)C1)C2` [Compound 279] the same measures were 79.691% and 4.02 µM. Consider `O=C(CN1C[C@@H]2C[C@H]1CN2CC(=O)NC1(C(F)(F)F)CC1)NC12CC3CC(CC(C3)C1)C2` [Compound 280], for which the “% Inhibition (Single Point Data)” value was found to be 61.038% and the IC50 is 0.759 µM. For `O=C(CN1CC2CC(C1)N2CC(=O)NC1(C(F)(F)F)CC1)NC12CC3CC(CC(C3)C1)C2` [Compound 281] the same measures were 54.316% and 0.9 µM. The corresponding values for `COc1cc(Cl)cc(NC(=O)CN2C[C@@H]3C[C@H]2CN3CC(=O)NC(C)(C)C)c1` [Compound 282] are 98.739% and 0.0748 µM. For `Cc1cc(Cl)cc(NC(=O)CN2C[C@@H]3C[C@H]2CN3CC(=O)NC(C)(C)C)c1` [Compound 283] the same measures were 94.657% and 0.14 µM. As for `COc1cc(Cl)cc(NC(=O)CN2CC3CC(C2)N3CC(=O)NC(C)(C)C)c1` [Compound 284], the “% Inhibition (Single Point Data)” value was determined as 103.09%. Turning to `CC(C)(C)NC(=O)CN1C[C@@H]2C[C@H]1CN2CC(=O)NCC12CC3CC(CC(C3)C1)C2` [Compound 285], the “% Inhibition (Single Point Data)” value amounted to 45.897% and the IC50 was found to be 1.27 µM.

Take `CC(C)(C)NC(=O)CN1C2CC1CN(CC(=O)Nc1cc(Cl)cc(Cl)c1)C2` [Compound 286]: the “% Inhibition (Single Point Data)” value is reported as 89.866% and the IC50 was 0.106 µM. The corresponding values for `CC(C)(C)NC(=O)CN1C[C@@H]2C[C@H]1CN2CC(=O)NC12CCC(CC1)CC2` [Compound 287] are 72.068% and 0.682 µM. As to `CC(C)(C)NC(=O)CN1C[C@@H]2C[C@H]1CN2CC(=O)NC12CCC(CC1)C2` [Compound 288], the “% Inhibition (Single Point Data)” value amounted to 23.299% and the IC50 was found to be 1.71 µM. Turning to `CC(C)(C)NC(=O)CN1C[C@@H]2C[C@H]1CN2CC(=O)NC1CCCCC1` [Compound 289], the “% Inhibition (Single Point Data)” value is recorded as 36.292% and the concentration for half-maximal inhibition (IC50) is 5.02 µM. Take `CC(C)(C)NC(=O)CN1C[C@@H]2C[C@H]1CN2C(=O)NCC12CC3CC(CC(C3)C1)C2` [Compound 290]: the “% Inhibition (Single Point Data)” value is 8.7515%.

For `O=C(CN1C[C@@H]2C[C@H]1CN2CCC1CCOCC1)NC12CC3CC(CC(C3)C1)C2` [Compound 291], the “% Inhibition (Single Point Data)” value is given as 18.238% and the IC50 was 3.33 µM. As to `O=C(CN1CC2CC(C1)N2CCC1CCOCC1)NC12CC3CC(CC(C3)C1)C2` [Compound 292], the “% Inhibition (Single Point Data)” value worked out at 11.934% and the IC50 turned out to be 4.77 µM. As for `CC(C)(C)C(O)CN1C2CC1CN(CC(=O)NC13CC4CC(CC(C4)C1)C3)C2` (stereo not shown) [Compound 293], the “% Inhibition (Single Point Data)” value is listed as 38.151% and the IC50 turned out to be 1.68 µM. Take `CC(C)(C)NC(=O)CN1C[C@@H]2C[C@H]1CN2CC(=O)Nc1cc(Cl)cc(OC(F)F)c1` [Compound 294]: the “% Inhibition (Single Point Data)” value came out at 101.56% and the IC50 came out at 0.0587 µM. `CC(C)(C)NC(=O)CN1C2CC1CN(C(=O)NCC13CC4CC(CC(C4)C1)C3)C2` [Compound 295]: the “% Inhibition (Single Point Data)” value came to 0.753%. Regarding `CC(C)(C)C(O)CN1C[C@@H]2C[C@H]1CN2CC(=O)NC12CC3CC(CC(C3)C1)C2` (stereo partly shown) [Compound 297], the “% Inhibition (Single Point Data)” value came out at 63.628% and the IC50 turned out to be 0.703 µM. The corresponding values for `CC1(C)CC(CN2C[C@@H]3C[C@H]2CN3CC(=O)NC23CC4CC(CC(C4)C2)C3)CCO1` (stereo partly shown) [Compound 298] are 26.791% and 2.08 µM. As for `CC1(C)CC(CN2C3CC2CN(CC(=O)NC24CC5CC(CC(C5)C2)C4)C3)CCO1` (stereo not shown) [Compound 299], the “% Inhibition (Single Point Data)” value came out at 43.196% and the IC50 was 0.932 µM. For `CC(C)(C)NC(=O)CN1C[C@@H]2C[C@H]1CN2CC(=O)NC12CC3CC(CC(F)(C3)C1)C2` [Compound 300], the “% Inhibition (Single Point Data)” value was 65.343% and the IC50 is 0.612 µM. The corresponding values for `CC(C)Cc1cc(CNC(=O)CN2CC3CC(C2)N3CC(=O)NC(C)(C)C)nn1-c1ccccc1` [Compound 301] are 19.445% and 3.24 µM. For `CC(C)Cc1cc(CNC(=O)CN2C[C@@H]3C[C@H]2CN3CC(=O)NC(C)(C)C)nn1-c1ccccc1` [Compound 302], the “% Inhibition (Single Point Data)” value is 21.003% and the IC50 was 3.32 µM. The corresponding values for `CC(C)(C)NC(=O)CN1C2CC1CN(C(=O)NC13CC4CC(CC(C4)C1)C3)C2` [Compound 303] are 23.993% and 8.85 µM. For `CC(C)(C)NC(=O)CN1C[C@@H]2C[C@H]1CN2C(=O)NC12CC3CC(CC(C3)C1)C2` [Compound 304] the same measures were 25.21% and 4.77 µM. The corresponding values for `Cc1cc(Cl)cc(NC(=O)CN2CC3CC(C2)N3CC(=O)NC(C)(C)C)c1` [Compound 305] are 101.69% and 0.199 µM. In the case of `CC(C)(C)NC(=O)CN1C2CC1CN(CC(=O)NCC13CC4CC(CC(C4)C1)C3)C2` [Compound 306], the “% Inhibition (Single Point Data)” value is recorded as 34.765% and the IC50 was found to be 1.99 µM. As for `CC(C)(C)NC(=O)CN1C2CC1CN(CC(=O)NC13CCC(CC1)CC3)C2` [Compound 307], the “% Inhibition (Single Point Data)” value was 41.625% and the IC50 amounted to 1.01 µM.

For the molecule `CC(C)(C)NC(=O)CN1C2CC1CN(CC(=O)NC13CCC(CC1)C3)C2` [Compound 308], the “% Inhibition (Single Point Data)” value was 33.02% and the IC50 turned out to be 1.93 µM. Consider `CC(C)(C)NC(=O)CN1C2CC1CN(CC(=O)NC1CCCCC1)C2` [Compound 309], for which the “% Inhibition (Single Point Data)” value was 22.713%. Consider `COc1cc(NC(=O)CN2C[C@@H]3C[C@H]2CN3CC(=O)NC(C)(C)C)ccc1F` [Compound 310], for which the “% Inhibition (Single Point Data)” value worked out at 84.193% and the IC50 worked out at 0.241 µM. For the molecule `COc1cc(NC(=O)CN2C[C@@H]3C[C@H]2CN3CC(=O)NC2(C(F)(F)F)CC2)ccc1F` [Compound 311], the “% Inhibition (Single Point Data)” value was 83.804% and the IC50 turned out to be 0.385 µM.
